From PMC10013835 (Proceedings of the National Academy of Sciences of the …, 2023)
Substitutions are numbered along the chain they refer to. Read-outs that look alike come from different tables or passages of the source.

Key:
[1] = target: T1, PXR LBD (Homo sapiens, UniProt O75469)
T1 sequence (O75469 146-433 limits assumed): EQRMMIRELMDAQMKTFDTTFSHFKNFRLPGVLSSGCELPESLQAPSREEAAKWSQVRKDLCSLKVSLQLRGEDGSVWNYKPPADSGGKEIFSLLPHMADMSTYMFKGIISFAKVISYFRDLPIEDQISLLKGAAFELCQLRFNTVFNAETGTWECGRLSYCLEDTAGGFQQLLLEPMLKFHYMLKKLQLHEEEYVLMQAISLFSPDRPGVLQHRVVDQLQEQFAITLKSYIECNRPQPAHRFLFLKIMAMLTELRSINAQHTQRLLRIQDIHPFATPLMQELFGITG

[2] = target: T2, W299A mutant PXR (Homo sapiens, UniProt O75469, W299A); details: 293T cells, 24 h, Fig. 6
T2 sequence (O75469 1-434 W299A): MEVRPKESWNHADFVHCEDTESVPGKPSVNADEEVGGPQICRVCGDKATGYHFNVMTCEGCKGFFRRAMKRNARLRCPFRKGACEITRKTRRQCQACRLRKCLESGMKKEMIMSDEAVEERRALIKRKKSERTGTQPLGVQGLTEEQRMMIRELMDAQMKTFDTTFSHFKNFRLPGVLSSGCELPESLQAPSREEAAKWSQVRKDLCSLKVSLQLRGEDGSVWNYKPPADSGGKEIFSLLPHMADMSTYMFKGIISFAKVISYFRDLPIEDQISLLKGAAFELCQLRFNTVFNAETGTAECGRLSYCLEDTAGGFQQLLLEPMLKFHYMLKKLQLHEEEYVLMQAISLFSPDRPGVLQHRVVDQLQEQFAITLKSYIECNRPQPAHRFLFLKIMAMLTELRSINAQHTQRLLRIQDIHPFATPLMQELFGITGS

[3] = target: T1, PXR LBD; assay: biochemical; details: PXR LBD binding [IC50 ± SD (µM)]
[4] = target: T3, PXR (Homo sapiens, UniProt O75469); type: cell-based; details: WT PXR-transfected 293T cells, 24 h, Fig. 5
T3 sequence (O75469 1-434): T2 sequence (O75469 1-434 W299A) with A299W

Group (PXR LBD binding affinity group) ([1]; human, pH 7.5) | reporter activity for W299A PXR versus WT, in words [2] | IC50 [3] | cellular PXR activity (luciferase reporter), in words [4] | FC, fold change, compound's IC50 divided by that of rifampicin ([1]; PXR LBD binding, relative to rifampicin) | Group (PXR LBD binding affinity group) ([1]; grouping relative to rifampicin affinity) | IC50 ([3]; TR-FRET, GST-PXR LBD, rifampicin analog series) | SMILES
1 | changed very little | 11.8 ± 4.4 µM | – | – | – | – | CO[C@H]1/C=C/O[C@@]2(C)Oc3c(C)c(O)c4c(c3C2=O)C2=NC3(CCN(CC(C)C)CC3)NC2=C(NC(=O)/C(C)=C\C=C\[C@H](C)[C@H](O)[C@@H](C)[C@@H](O)[C@@H](C)[C@H](OC(C)=O)[C@@H]1C)C4=O [Rifabutin]
2 | nearly completely inactive | 0.054 ± 0.014 µM | marginally better than rifampicin | – | – | – | CO[C@H]1/C=C/O[C@@]2(C)Oc3c(C)c(O)c4c(c3C2=O)C(=O)C=C(NC(=O)/C(C)=C\C=C\[C@H](C)[C@H](O)[C@@H](C)[C@@H](O)[C@@H](C)[C@H](OC(C)=O)[C@@H]1C)C4=O [Rifamycin S]
2 | – | 0.067 ± 0.009 µM | marginally better than rifampicin | – | – | – | CO[C@H]1/C=C/O[C@@]2(C)Oc3c(C)c(O)c4c(O)c(cc(O)c4c3C2=O)NC(=O)/C(C)=C\C=C\[C@H](C)[C@H](O)[C@@H](C)[C@@H](O)[C@@H](C)[C@H](OC(C)=O)[C@@H]1C [Rifamycin]
– | – | – | – | 4.2 | 1 | 11.4 ± 3.3 µM | CO[C@H]1/C=C/O[C@@]2(C)Oc3c(C)c(O)c4c(O)c(c5c(nc6cc(C)ccn65)c4c3C2=O)NC(=O)/C(C)=C\C=C\[C@H](C)[C@H](O)[C@@H](C)[C@@H](O)[C@@H](C)[C@H](OC(C)=O)[C@@H]1C [Rifaximin]
